Measured values from patent US20090082358A1, “Vanilloid receptor ligands and their use in treatments” (priority 2007, published 2009).

Target: T1, human TRPM8 (Homo sapiens, UniProt Q7Z2W7)
T1 construct: expressed in transfected cells; host or cells: CHO cells, T-REx tetracycline-inducible expression system (Invitrogen), co-transfected with pcDNA3.1 aequorin
Test: Luminescence readout assay for measuring intracellular calcium (aequorin), antagonism of cold buffer activation
Type: cell-based
Conditions: CHO cells expressing human TRPM8; activation by cold buffer (<10° C.)
Method: Luminescence readout assay for measuring intracellular calcium. Stable CHO cell lines expressing human TRPM8 were generated using tetracycline inducible T-REx™ expression system from Invitrogen, Inc (Carlsbad, Calif.). […] Twenty four hours before the assay, cells were seeded in 96-well plates and TRP channel expression was induced with 0.5 μg/ml tetracycline.

T1 sequence (Q7Z2W7 whole entry): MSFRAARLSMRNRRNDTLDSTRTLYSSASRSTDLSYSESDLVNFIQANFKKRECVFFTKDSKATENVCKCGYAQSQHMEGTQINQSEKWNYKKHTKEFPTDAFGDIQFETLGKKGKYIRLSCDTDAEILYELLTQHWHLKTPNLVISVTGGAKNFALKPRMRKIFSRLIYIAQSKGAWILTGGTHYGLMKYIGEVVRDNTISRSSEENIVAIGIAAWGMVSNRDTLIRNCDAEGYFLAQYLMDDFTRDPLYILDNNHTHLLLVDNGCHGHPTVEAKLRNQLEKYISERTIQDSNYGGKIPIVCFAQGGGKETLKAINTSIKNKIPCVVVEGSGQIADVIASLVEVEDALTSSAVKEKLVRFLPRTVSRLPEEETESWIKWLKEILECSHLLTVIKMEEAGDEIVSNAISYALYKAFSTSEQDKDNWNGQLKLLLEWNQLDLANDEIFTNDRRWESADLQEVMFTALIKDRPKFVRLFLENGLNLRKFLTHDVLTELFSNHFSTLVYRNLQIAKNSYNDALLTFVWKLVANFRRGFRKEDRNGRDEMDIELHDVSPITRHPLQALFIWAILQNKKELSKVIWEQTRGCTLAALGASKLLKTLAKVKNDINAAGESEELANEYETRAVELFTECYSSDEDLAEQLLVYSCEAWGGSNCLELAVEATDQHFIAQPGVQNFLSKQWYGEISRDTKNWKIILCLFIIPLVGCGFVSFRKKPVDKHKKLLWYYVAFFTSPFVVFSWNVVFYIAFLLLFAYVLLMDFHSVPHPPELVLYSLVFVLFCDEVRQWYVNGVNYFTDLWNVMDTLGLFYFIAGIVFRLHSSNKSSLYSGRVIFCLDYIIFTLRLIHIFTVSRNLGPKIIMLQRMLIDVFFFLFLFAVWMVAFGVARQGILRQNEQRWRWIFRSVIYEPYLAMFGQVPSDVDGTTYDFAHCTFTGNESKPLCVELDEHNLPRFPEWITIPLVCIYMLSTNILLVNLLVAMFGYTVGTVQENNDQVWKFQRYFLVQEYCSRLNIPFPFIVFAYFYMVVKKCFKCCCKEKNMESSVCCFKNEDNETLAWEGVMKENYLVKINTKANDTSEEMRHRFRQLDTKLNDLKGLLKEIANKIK

O=C(Nc1ccc(-c2ccccc2)cc1)N1CCc2cccnc2[C@H]1c1ccc(C(F)(F)F)cc1 [Example 31, (R)—N-(4-biphenyl)-8-(4-(trifluoromethyl)phenyl)-5,6-dihydro-1,7-naphthyridine-7(8H)-carboxamide]
IC50: < 5 µM

Cc1ccnc2c1CCN(C(=O)Nc1ccc(F)cc1)[C@@H]2c1ccc(C(F)(F)F)cc1 [Example 55, (R)—N-(4-fluorophenyl)-4-methyl-8-(4-(trifluoromethyl)phenyl)-5,6-dihydro-1,7-naphthyridine-7(8H)-carboxamide]
IC50: < 5 µM

O=C(Nc1cccnc1)N1CCc2nccnc2[C@H]1c1ccc(C(F)(F)F)cc1 [Example 39, (R)—N-(Pyridin-3-yl)-5-(4-(trifluoromethyl)phenyl)-7,8-dihydropyrido[3,4-b]pyrazine-6(5H)-carboxamide]
IC50: < 5 µM

CCOC(=O)N1C=Cc2ncccc2C1c1ccc(C(F)(F)F)cc1 (stereo not shown) [Example 1, Ethyl 5-(4-(trifluoromethyl)phenyl)-1,6-naphthyridine-6(5H)-carboxylate]
IC50: < 5 µM

O=C(N[C@H]1C[C@H]1c1ccccc1)N1CCc2cccnc2[C@H]1c1ccc(C(F)(F)F)cc1 [Example 36, (R)—N-((1S,2S)-2-phenylcyclopropyl)-8-(4-(trifluoromethyl)phenyl)-5,6-dihydro-1,7-naphthyridine-7(8H)-carboxamide]
IC50: < 5 µM

COc1ccccc1NC(=O)N1CCc2cccnc2[C@H]1c1ccc(C(F)(F)F)cc1 [Example 20, (R)—N-(2-methoxyphenyl)-8-(4-(trifluoromethyl)phenyl)-5,6-dihydro-1,7-naphthyridine-7(8H)-carboxamide]
IC50: < 5 µM

C[C@H](NC(=O)N1CCc2cccnc2[C@H]1c1ccc(C(F)(F)F)cc1)c1ccccc1 [Example 24, (R)—N—((S)-1-phenylethyl)-8-(4-(trifluoromethyl)phenyl)-5,6-dihydro-1,7-naphthyridine-7(8H)-carboxamide]
IC50: < 5 µM

O=C(NCCc1ccccc1)N1CCc2cccnc2[C@H]1c1ccc(C(F)(F)F)cc1 [Example 22, (R)—N-phenethyl-8-(4-(trifluoromethyl)phenyl)-5,6-dihydro-1,7-naphthyridine-7(8H)-carboxamide]
IC50: < 5 µM

CCOC(=O)N1C=Cc2cccnc2C1c1ccc(C(F)(F)F)cc1 (stereo not shown) [Example 5, Ethyl 8-(4-(trifluoromethyl)phenyl)-1,7-naphthyridine-7(8H)-carboxylate]
IC50: < 5 µM

O=C(Nc1ccc(F)cc1)N1CCc2cccnc2C1c1ccc(-c2ccccc2)cc1 (stereo not shown) [Example 47, N-(4-Fluorophenyl)-8-(4-biphenyl)-5,6-dihydro-1,7-naphthyridine-7(8H)-carboxamide]
IC50: < 5 µM

O=C(Nc1ccc(Cl)cc1)N1CCc2cccnc2[C@H]1c1ccc(C(F)(F)F)cc1 [Example 23, (R)—N-(4-chlorophenyl)-8-(4-(trifluoromethyl)phenyl)-5,6-dihydro-1,7-naphthyridine-7(8H)-carboxamide]
IC50: < 5 µM

O=C(Nc1ccc(F)cc1)N1CCc2c(-c3ccc(F)cc3)ccnc2[C@H]1c1ccc(C(F)(F)F)cc1 [Example 54, (R)—N,4-bis(4-fluorophenyl)-8-(4-(trifluoromethyl)phenyl)-5,6-dihydro-1,7-naphthyridine-7(8H)-carboxamide]
IC50: < 5 µM

CCOC(=O)N1CCc2cccnc2C1c1ccc(F)cc1 (stereo not shown) [Example 45, Ethyl 8-(4-fluorophenyl)-5,6-dihydro-1,7-naphthyridine-7(8H)-carboxylate]
IC50: < 5 µM

C[C@@H](NC(=O)N1CCc2cccnc2[C@H]1c1ccc(C(F)(F)F)cc1)c1ccccc1 [Example 29, (R)—N—((R)-1-phenylethyl)-8-(4-(trifluoromethyl)phenyl)-5,6-dihydro-1,7-naphthyridine-7(8H)-carboxamide]
IC50: < 5 µM

C[C@@H]1Cc2cccnc2[C@H](c2ccc(C(F)(F)F)cc2)N1C(=O)Nc1ccc(F)cc1 (racemic) [Example 48, (6R,8)-N-(4-Fluorophenyl)-6-methyl-8-(4-(trifluoromethyl)phenyl)-5,6-dihydro-1,7-naphthyridine-7(8H)-carboxamide and (6S,8R)—N-(4-fluorophenyl)-6-methyl-8-(4-(trifluoromethyl)phenyl)-5,6-dihydro-1,7-naphthyridine-7(8H)-carboxamide]
IC50: < 5 µM

O=C(Nc1ccccc1F)N1CCc2cccnc2[C@H]1c1ccc(C(F)(F)F)cc1 [Example 21, (R)—N-(2-fluorophenyl)-8-(4-(trifluoromethyl)phenyl)-5,6-dihydro-1,7-naphthyridine-7(8H)-carboxamide]
IC50: < 5 µM

CCOC(=O)N1C=Cc2nccnc2C1c1ccc(C(F)(F)F)cc1 (stereo not shown) [Example 12, Ethyl 5-(4-(trifluoromethyl)phenyl)pyrido[3,4-b]pyrazine-6(5H)-carboxylate]
IC50: < 5 µM

CN(C)c1ccc(NC(=O)N2CCc3cccnc3[C@H]2c2ccc(C(F)(F)F)cc2)cc1 [Example 25, (R)—N-(4-(dimethylamino)phenyl)-8-(4-(trifluoromethyl)phenyl)-5,6-dihydro-1,7-naphthyridine-7(8H)-carboxamide]
IC50: < 5 µM

O=C(Nc1ccc(C(F)(F)F)cc1)N1CCc2cccnc2[C@H]1c1ccc(C(F)(F)F)cc1 [Example 40, (R)—N,8-Bis(4-(trifluoromethyl)phenyl)-5,6-dihydro-1,7-naphthyridine-7(8H)-carboxamide]
IC50: < 5 µM

CC(C)(C)NC(=O)N1CCc2cccnc2[C@H]1c1ccc(C(F)(F)F)cc1 [Example 28, (R)—N-tert-butyl-8-(4-(trifluoromethyl)phenyl)-5,6-dihydro-1,7-naphthyridine-7(8H)-carboxamide]
IC50: < 5 µM

O=C(Nc1cccc(F)c1)N1CCc2cccnc2[C@H]1c1ccc(C(F)(F)F)cc1 [Example 33, (R)—N-(3-fluorophenyl)-8-(4-(trifluoromethyl)phenyl)-5,6-dihydro-1,7-naphthyridine-7(8H)-carboxamide]
IC50: < 5 µM

O=C(Nc1ccc(F)c(F)c1)N1CCc2cccnc2[C@H]1c1ccc(C(F)(F)F)cc1 [Example 26, (R)—N-(3,4-difluorophenyl)-8-(4-(trifluoromethyl)phenyl)-5,6-dihydro-1,7-naphthyridine-7(8H)-carboxamide]
IC50: < 5 µM

O=C(Nc1ccc2c(c1)OCO2)N1CCc2cccnc2[C@H]1c1ccc(C(F)(F)F)cc1 [Example 37, (R)—N-(benzo[d][1,3]dioxol-5-yl)-8-(4-(trifluoromethyl)phenyl)-5,6-dihydro-1,7-naphthyridine-7(8H)-carboxamide]
IC50: < 5 µM

O=C(NCc1ccccc1)N1CCc2cccnc2[C@H]1c1ccc(C(F)(F)F)cc1 [Example 32, (R)—N-benzyl-8-(4-(trifluoromethyl)phenyl)-5,6-dihydro-1,7-naphthyridine-7(8H)-carboxamide]
IC50: < 5 µM

O=C(Nc1ccccn1)N1CCc2cccnc2[C@H]1c1ccc(C(F)(F)F)cc1 [Example 30, (R)—N-(pyridin-2-yl)-8-(4-(trifluoromethyl)phenyl)-5,6-dihydro-1,7-naphthyridine-7(8H)-carboxamide]
IC50: < 5 µM

C[C@@H]1CN(C(=O)Nc2ccc(F)cc2)[C@H](c2ccc(C(F)(F)F)cc2)c2ncccc21 (racemic) [Example 49, (5S,8R)—N-(4-Fluorophenyl)-5-methyl-8-(4-(trifluoromethyl)phenyl)-5,6-dihydro-1,7-naphthyridine-7(8H)-carboxamide and (5R,8S)—N-(4-fluorophenyl)-5-methyl-8-(4-(trifluoromethyl)phenyl)-5,6-dihydro-1,7-naphthyridine-7(8H)-carboxamide]
IC50: < 5 µM

O=C(OCc1ccccc1)N1C=Cc2cccnc2C1c1ccc(C(F)(F)F)cc1 (stereo not shown) [Example 43, Benzyl 8-(4-(trifluoromethyl)phenyl)-1,7-naphthyridine-7(8H)-carboxylate]
IC50: < 5 µM

COc1ccc(NC(=O)N2CCc3cccnc3[C@H]2c2ccc(C(F)(F)F)cc2)cc1 [Example 35, (R)—N-(4-methoxyphenyl)-8-(4-(trifluoromethyl)phenyl)-5,6-dihydro-1,7-naphthyridine-7(8H)-carboxamide]
IC50: < 5 µM

N#Cc1cccc(NC(=O)N2CCc3cccnc3[C@H]2c2ccc(C(F)(F)F)cc2)c1 [Example 42, (R)—N-(3-Cyanophenyl)-8-(4-(trifluoromethyl)phenyl)-5,6-dihydro-1,7-naphthyridine-7(8H)-carboxamide]
IC50: < 5 µM

N#Cc1ccccc1NC(=O)N1CCc2cccnc2[C@H]1c1ccc(C(F)(F)F)cc1 [Example 41, (R)—N-(2-Cyanophenyl)-8-(4-(trifluoromethyl)phenyl)-5,6-dihydro-1,7-naphthyridine-7(8H)-carboxamide]
IC50: < 5 µM

O=C(Nc1ccc(F)cc1)N1CCc2cccnc2C1c1ccc(F)cc1 (stereo not shown) [Example 46, N,8-Bis(4-fluorophenyl)-5,6-dihydro-1,7-naphthyridine-7(8H)-carboxamide]
IC50: < 5 µM

Cc1noc(C)c1NC(=O)N1CCc2cccnc2[C@H]1c1ccc(C(F)(F)F)cc1 [Example 27, (R)—N-(3,5-dimethylisoxazol-4-yl)-8-(4-(trifluoromethyl)phenyl)-5,6-dihydro-1,7-naphthyridine-7(8H)-carboxamide]
IC50: < 5 µM

CCOC(=O)N1C=Cc2cccnc2C1c1ccc(F)cc1 (stereo not shown) [Example 44, Ethyl 8-(4-fluorophenyl)-1,7-naphthyridine-7(8H)-carboxylate]
IC50: < 5 µM

CC(C)NC(=O)N1CCc2nccnc2[C@H]1c1ccc(C(F)(F)F)cc1 [Example 38, (R)—N-Isopropyl-5-(4-(trifluoromethyl)phenyl)-7,8-dihydropyrido[3,4-b]pyrazine-6(5H)-carboxamide]
IC50: < 5 µM
